Measurements as given in ChEMBL document CHEMBL5131536, “Novel Quinoline Compounds as EZH2 Inhibitors for Treating Cancer” (ACS Med Chem Lett, 2022).
pIC50: −log10 of the molar value.

Molecular target: Histone-lysine N-methyltransferase EZH2 (Homo sapiens, UniProt Q15910)
Assay: Inhibition of EZH2 in human G-401 cells assessed as reduction in H3K27 methylation incubated for 48 hrs by ELISA
Format: cell-based

Chain of Histone-lysine N-methyltransferase EZH2 (Q15910 whole entry): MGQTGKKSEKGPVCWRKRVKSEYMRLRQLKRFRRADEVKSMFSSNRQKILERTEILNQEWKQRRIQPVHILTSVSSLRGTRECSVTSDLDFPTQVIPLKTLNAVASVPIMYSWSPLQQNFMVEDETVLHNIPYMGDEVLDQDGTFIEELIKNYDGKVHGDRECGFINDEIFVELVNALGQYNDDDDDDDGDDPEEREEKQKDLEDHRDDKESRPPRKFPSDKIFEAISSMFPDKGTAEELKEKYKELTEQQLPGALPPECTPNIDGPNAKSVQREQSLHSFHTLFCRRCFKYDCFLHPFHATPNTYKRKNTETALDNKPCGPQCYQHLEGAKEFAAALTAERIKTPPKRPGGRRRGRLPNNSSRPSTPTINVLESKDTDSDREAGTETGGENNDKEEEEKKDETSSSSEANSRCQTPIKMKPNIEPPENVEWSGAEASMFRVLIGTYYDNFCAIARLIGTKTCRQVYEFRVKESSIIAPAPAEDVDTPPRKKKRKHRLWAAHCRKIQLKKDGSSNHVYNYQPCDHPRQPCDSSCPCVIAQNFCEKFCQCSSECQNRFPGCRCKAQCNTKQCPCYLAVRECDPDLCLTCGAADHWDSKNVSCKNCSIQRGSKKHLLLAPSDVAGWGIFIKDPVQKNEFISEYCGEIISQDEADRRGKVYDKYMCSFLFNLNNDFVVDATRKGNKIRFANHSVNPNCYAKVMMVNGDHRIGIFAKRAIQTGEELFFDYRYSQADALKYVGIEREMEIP

Row | SMILES | pIC50
1 | Cc1ccc2ccc(N[C@H]3CC[C@H](CNc4ncc(C(CO)C(=O)NC5COC5)cn4)CC3)nc2c1Cl (stereo partly specified) | > 8.00
2 | Cc1ccc2ccc(N[C@H]3CC[C@H](CNc4ncc(CC(=O)NC5COC5)cn4)CC3)nc2c1Cl | > 8.00
3 | Cc1ccc2ccc(N[C@H]3CC[C@H](CNc4ncc(C(F)(F)C(=O)NC5COC5)cn4)CC3)nc2c1Cl | > 8.00

Further lines, results first:

Row | pIC50 | SMILES
4 | > 8.00 | Cc1ccc2ccc(N[C@H]3CC[C@H](CNc4ncc(C(C#N)C(=O)NC5COC5)cn4)CC3)nc2c1Cl (stereo partly specified)
5 | > 8.00 | Cc1ccc2ccc(N[C@H]3CC[C@H](CNc4ncc(C(O)C(=O)NC5COC5)cn4)CC3)nc2c1Cl (stereo partly specified)
6 | > 8.00 | Cc1ccc2ccc(N[C@H]3CC[C@H](CNc4ccc(CC(=O)NC5COC5)cn4)CC3)nc2c1Cl
